In PMC5840523, “Assessment of a pretomanid analogue library for African trypanosomiasis: Hit-to-lead studies on 6-substituted 2-nitro-6,7-dihydro-5H-imidazo[2,1-b][1,3]thiazine 8-oxides” (Bioorganic & Medicinal Chemistry Letters, 2018):
Values after ≈ are worked out from the molar mass of the structure shown. Like-named read-outs stand apart in the source and are kept apart here.

Assays:
T. b. brucei (TREU 667) [1] = settings: cited from earlier work
[2] = Mouse liver microsomal stability; assay type: in vitro ADME; settings: CD-1 mouse liver microsomes
T. b. rhodesiense = T. b. rhodesiense growth inhibition (University of Antwerp); assay type: cell-based, Trypanosoma brucei rhodesiense; settings: for IC50: mean of 2 to 5 determinations, read-out: IC50 T. b. rhod
T. b. brucei 427 [3] = test: T. b. brucei growth inhibition (University of Antwerp); assay type: cell-based, Trypanosoma brucei brucei; settings: for IC50: T. b. brucei 427, mean of 2 to 5 determinations, read-out: IC50 T. b. bruc
T. b. brucei (EATRO 110) = test: Acute (stage 1) HAT infection mouse model; assay type: in vivo, T. b. brucei; female Swiss Webster mice
Experimental: Therefore, 24 was examined in a stage 1 HAT mouse model.[14] Briefly, dosing was orally once daily for four days, starting 24 h postinfection, and parasitemia was assessed weekly via tail vein blood smears (see the Supporting Information). Excellent activity was observed (Table 4), with 24 providing complete cures (i.e. parasite free blood smears after >30 days) to all mice at doses as low as 5 mg/kg, similar to the control drug pentamidine (given i.p. at 2 mg/kg), whereas the vehicle only mice died on day 7. […] Here, oral dosing of 24 (at 12.5 to 50 mg/kg once daily for seven days from day 21 postinfection) led to significant increases in survival times in comparison to untreated controls (66–70 days vs 31 days; Table 5), although cure rates were inadequate (0–20%). […]
Mouse Model f or Acu te HAT Inf ection. Compound 24 was tested for in vivo effi cac y against acute HAT infection caused b y T. b. brucei (EATRO 110 strain) at the Haskins Laboratories, Pace Universit y. […] Infected animals or th ose showing si gns of infectionwer e euthanized.Untreated infected contr ol animals died after 5-7 days; mice remaining parasite free for more than 30 da ys beyond the end of the tr eatment period w er e con sidered cur ed. […]

T. b. brucei (TREU 667) [4] = test: CNS (stage 2, chronic) HAT infection mouse model; assay type: in vivo, T. b. brucei; female Swiss Webster mice
Experimental: Therefore, 24 was examined in a stage 1 HAT mouse model.[14] Briefly, dosing was orally once daily for four days, starting 24 h postinfection, and parasitemia was assessed weekly via tail vein blood smears (see the Supporting Information). Excellent activity was observed (Table 4), with 24 providing complete cures (i.e. parasite free blood smears after >30 days) to all mice at doses as low as 5 mg/kg, similar to the control drug pentamidine (given i.p. at 2 mg/kg), whereas the vehicle only mice died on day 7. […]
Mouse Model for Chronic HAT Inf ection. Compound 24 was tested for in vi vo efficac y against chronic HAT infection caused b y T. b. brucei (TREU 667 strain) at the Haskin s Laboratories, Pace Universit y. […]
suspension formulation (0.8% CMC, 0.1% SDS in water) to groups of 8 or 10infected f emal e Swiss Webster mice, starting 21 d postinfection, according to a report ed method. 5 Animals remaining parasite free for more than 180 da ys beyond the end of the treatment period were […]

[5] = Kinetic solubility in water or 0.1 M HCl (ACSRC); assay type: physicochemical; settings: read-out: aqueous solubility
Leishmania infantum = test: L. infantum growth inhibition (University of Antwerp); assay type: cell-based; settings: mean of 2 to 5 determinations
T. b. brucei 427 [6] = test: T. b. brucei 427 growth inhibition (Scynexis); assay type: cell-based, Trypanosoma brucei brucei
Trypanosoma cruzi = test: T. cruzi growth inhibition (University of Antwerp); assay type: cell-based; settings: mean of 2 to 5 determinations
L929 mouse fibroblasts = test: Cytotoxicity toward L929 mouse fibroblasts (Scynexis); assay type: cell-based
[7] = Human liver microsomal stability; assay type: in vitro ADME; settings: pooled human liver microsomes
[8] = system: human lung fibroblasts (MRC-5 cells); test: Cytotoxicity toward MRC-5 cells (University of Antwerp); assay type: cell-based
in vitro = settings: dog, MDCK-MDR1
[9] = 1.25 mg/kg orally once daily for 4 days
[10] = 2.5 mg/kg orally once daily for 4 days
[11] = 5 mg/kg orally once daily for 4 days
[12] = 12.5 mg/kg orally once daily for 4 days
[13] = 25 mg/kg orally once daily for 4 days
[14] = 50 mg/kg orally once daily for 4 days
[15] = 12.5 mg/kg orally once daily for 7 d from day 21 postinfection
[16] = 25 mg/kg orally once daily for 7 d from day 21 postinfection
[17] = 50 mg/kg orally once daily for 7 d from day 21 postinfection

In the case of `CC1(C)OB(O)c2cc(NC(=O)c3ccc(F)cc3C(F)(F)F)ccc21` [Compound 5], the cure rate (T. b. brucei (TREU 667) [1]; same CNS model, 25 mg/kg once daily for 7 days) is given as 100%.
Work on `O=[N+]([O-])c1cn2c(n1)[S@+]([O-])C[C@@H](OCc1ccc(OC(F)(F)F)cc1)C2` [Compound 24] yielded a remaining at 1 h [2] of 96%, an IC50 (T. b. rhodesiense; Trypanosoma brucei, RHODESIENSE) of 130 nM and an IC50 (T. b. brucei 427 [3]; Trypanosoma brucei) of 140 nM. For the same compound, the Cured (T. b. brucei (EATRO 110); [9]) was 0%, the Cured/Total (T. b. brucei (EATRO 110); [9]) was 0/4 and the Mean survival (T. b. brucei (EATRO 110); [9]) was 7.5 days. The Cured (T. b. brucei (EATRO 110); [10]) was 25%, the Cured/Total (T. b. brucei (EATRO 110); [10]) was 1/4 and the Mean survival (T. b. brucei (EATRO 110); [10]) was 13 days. For the same compound, the Cured (T. b. brucei (EATRO 110); [11]) was 100%, the Cured/Total (T. b. brucei (EATRO 110); [11]) was 4/4 and the Mean survival (T. b. brucei (EATRO 110); [11]) was over 30 days. The Cured (T. b. brucei (EATRO 110); [12]) was 100%, the Cured/Total (T. b. brucei (EATRO 110); [12]) was 5/5 and the Mean survival (T. b. brucei (EATRO 110); [12]) was over 30 days. For the same compound, the Cured (T. b. brucei (EATRO 110); [13]) was 100%, the Cured/Total (T. b. brucei (EATRO 110); [13]) was 5/5 and the Mean survival (T. b. brucei (EATRO 110); [13]) was over 30 days. The Cured (T. b. brucei (EATRO 110); [14]) was 100%, the Cured/Total (T. b. brucei (EATRO 110); [14]) was 5/5 and the Mean survival (T. b. brucei (EATRO 110); [14]) was over 30 days. The “lowest dose providing complete cures to all mice” value (T. b. brucei (EATRO 110); orally once daily for four days) was 5 mg/kg, the “efficacy relative to results described for fexinidazole (4) (fold superior)” value (T. b. brucei (EATRO 110); stage 1 HAT mouse model) was about 20 fold and the Cured (T. b. brucei (TREU 667) [4]; [15]) was 0%. For the same compound, the Cured/Total (T. b. brucei (TREU 667) [4]; [15]) was 0/8, the Mean relapse time (T. b. brucei (TREU 667) [4]; [15]) was 45 days and the Cured (T. b. brucei (TREU 667) [4]; [16]) was 20%. The Cured/Total (T. b. brucei (TREU 667) [4]; [16]) was 2/10, the Mean relapse time (T. b. brucei (TREU 667) [4]; [16]) was 70 days and the Cured (T. b. brucei (TREU 667) [4]; [17]) was 0%. The Cured/Total (T. b. brucei (TREU 667) [4]; [17]) was 0/10, the Mean relapse time (T. b. brucei (TREU 667) [4]; [17]) was 66 days and the cure rates (T. b. brucei (TREU 667) [4]; 12.5 to 50 mg/kg orally once daily for seven days from day 21) was 0–20%. For the same compound, the solubility at 15 min ([5]; water) was 106 µg/mL (≈ 271 µM), the IC50 (Leishmania infantum; Leishmania infantum) was 10000 nM and the “Selectivity Index” value (T. b. brucei 427 [6]; L929 vs T. b. brucei) was over 143. For the same compound, the “potency relative to (6R) enantiomer 26 (fold more potent)” value (T. b. brucei 427 [6]; T. b. brucei) was “more than 70 fold”, the “potency relative to cis isomer 25 (fold more potent)” value (T. b. brucei 427 [6]; T. b. brucei) was 40 fold and the IC50 (T. b. brucei 427 [6]; Trypanosoma brucei, growth inhibition of T. b. brucei 427, mean ± SD) was 0.07 ± 0.005 µg/mL (≈ 0.179 µM). The IC50 (Trypanosoma cruzi; Trypanosoma cruzi) was 1400 nM, the IC50 (L929 mouse fibroblasts) was over 10 µg/mL and the remaining at 1 h [7] was 82%. For the same compound, the IC50 ([8]; Homo sapiens, MRC5, cytotoxicity toward human lung fibroblasts) was 50000 nM.
In the case of `O=[N+]([O-])c1cn2c(n1)[S+]([O-])CC(OCc1ccc(-c3ccc(OC(F)(F)F)cc3)cn1)C2` (stereo not drawn) [Compound 35, 2-Nitro-6-({5-[4-(trifluoromethoxy)phenyl]pyridin-2-yl}methoxy)-6,7-dihydro-5H-imidazo[2,1-b][1,3]thiazine 8-oxide], the remaining at 1 h [2] is reported as 72%, the “potency against T. b. rhodesiense relative to 12 (fold higher)” value (T. b. rhodesiense) is reported as 11 fold and the IC50 (T. b. rhodesiense) is reported as 23 nM. For the same compound, the “potency against T. b. brucei relative to 12 (fold greater)” value (T. b. brucei 427 [3]) was 9 fold, the IC50 (T. b. brucei 427 [3]) was 30 nM and the solubility at 15 min ([5]; 0.1 M HCl, pH 1) was 1260 µg/mL (≈ 2690 µM). For the same compound, the solubility at 15 min ([5]; water, pH 7) was 9.9 µg/mL (≈ 21.1 µM), the IC50 (Leishmania infantum) was 410 nM and the Papp A→B at 150 min, 2 µM (in vitro) was 11.7 ×10⁻⁶ cm/s. For the same compound, the Papp B→A at 150 min, 2 µM (in vitro) was 18.2 ×10⁻⁶ cm/s, the IC50 (Trypanosoma cruzi) was 67 nM and the remaining at 1 h [7] was 78%. For the same compound, the “selectivity index (MRC-5 IC50 / HAT IC50)” value [8] was over 500 times, the “selectivity index relative to 12 (fold better)” value [8] was 2.4 fold and the IC50 ([8]; cytotoxicity toward human lung fibroblasts) was 16000 nM.
In the case of `O=C(Nc1ccc2c(c1)B(O)OC2)c1ccc(F)cc1C(F)(F)F` [SCYX-6759], the “cure rate of the CNS infection” value (T. b. brucei (TREU 667) [1]; oral 50 mg/kg twice daily (b.i.d.)) is given as 83%.
